Experimental data taken from publication PMC4138103 (PLoS ONE, 2014).
Read-outs that look alike come from different tables or passages of the source.

Experiments:
Sprague-Dawley rats [1] = assay: In-life observations, 28-day repeated dose oral toxicity study; assay type: in vivo, Rattus norvegicus
Description: The experimental protocol followed the OECD 407 Guideline on Repeated dose 28-day oral toxicity study in rodents, which was enhanced for detection of endocrine, neurotoxicity, retinoid, bone and DNA damage endpoints. In order to improve the assessment of dose-response relationships the number of rats per gender per dose group was reduced to 5 and the amount of dose groups was increased to 8. To rapidly achieve the kinetic steady state, the total dose was divided into 6 daily loading doses and 3 weekly maintenance doses, which were calculated according to the formula [21]. [drawing 1] where [drawing 2] = loading dose
Loading doses were administered on days 0–5 and maintenance doses on days 10, 17 and 24 of the study. Selection of the highest dose was based on a pilot study.
Food and water consumption per cage was recorded once weekly. For determination of the stage of the estrous cycle vaginal smears were collected from female rats daily starting from day 23 of the study. This was done to ensure that the females were at the diestrous stage during necropsy.

Sprague-Dawley rats [2] = assay: Liver p53 and DNA damage markers, Western blotting; assay type: in vivo, Rattus norvegicus; conditions: for Emax: Rattus norvegicus
Procedure: Liver p53, Mdm2 and DNA damage related markers were assessed by Western blotting analysis. Proteins of the liver homogenates were quantified using Coomassie Plus Protein Assay Reagent (Pierce, Täby, Sweden). The samples were subjected to SDS-PAGE, the separated proteins were transferred to a polyvinylidene difluoride membrane (Bio-Rad, Hercules, CA, USA) and blocked in 10% non-fatty milk for 1 h. The protein bands were subsequently probed with antibodies overnight at 4°C.
The primary antibody for total p53 DO-1 was purchased from Novocastra (Newcastle, UK). Primary antibodies for DNA-damage marker were phospho-p53 (Ser-15), phospho-Chk2 (Thr-68), phospho-Mdm2 (Ser-166), phospho-Akt (Ser-473) (Cell Signaling Technology, Stockholm, Sweden) phospho-Erk (Tyr-204) (E-4) and the loading control Cdk2 (M2) (sc-7383 resp. sc-163, Santa Cruz Biotechnology, Santa Cruz, CA, USA). Secondary antibodies used were goat anti-rabbit IgG, goat anti-mouse IgG (sc-2004 resp. sc-2005, Santa Cruz Biotechnology). No signals were obtained when primary antibodies were omitted. […]. The results were visualized by the ECL or ECL plus detection kits (Amersham GE Healthcare Bio-sciences AB, Uppsala, Sweden). Cdk2 was used as a loading control.
Data were also analyzed using the BMD method, which is based on dose-response modeling of the full data set using a nested family of exponential and Hill models. The analyses were done on data of males and females combined, using sex as a covariate. […] In that case, different Critical Effect Doses (CEDs) and CEDs at the lowest bound of the confidence interval (CED-L) were generated for each sex. If no difference between sexes is detected, a CED and CED-Ls for the combined data is generated. However, this was also done if the curve fits are close, and separate analyses for males and females were then performed manually. […]

[3] = F, CES 5%, model E4, adipose tissue concentration based
[4] = F, CES 5%, model E5, adipose tissue concentration based
[5] = F, CES 100%, model E4, adipose tissue concentration based
[6] = F, CES 100%, model E5, adipose tissue concentration based
[7] = females, CES 5%, total dose based
[8] = females, CES 100%, adipose tissue concentration based
[9] = females, CES 100%, total dose based
[10] = females, adipose tissue concentration based

`Clc1cc(Cl)c(-c2cc(Cl)c(Cl)c(Cl)c2Cl)cc1Cl` [PCB 180, 2,2′,3′,4,4′,5,5′-heptachlorobiphenyl] was tested, and the Body weight development (Sprague-Dawley rats [1]; 1700 mg/kg bw, both genders, during loading dosing, recovered completely by end of study) was “retarded”, the “Feed consumption, maximal temporary reduction” value (Sprague-Dawley rats [1]; females, three highest doses, during loading dosing) was “about 20%” and the “Feed consumption, maximal temporary reduction” value (Sprague-Dawley rats [1]; males, two highest doses, during loading dosing) was “about 25%”. For the same compound, the Water consumption (Sprague-Dawley rats [1]; rat, in vivo) was “unaffected”, the Mortality (Sprague-Dawley rats [1]; total doses 3-1700 mg/kg bw, both genders) was “no mortality” and the “CED, Liver p53” value (Sprague-Dawley rats [2]; [3]) was 65.2 µg/g lipid. For the same compound, the “CED-L, Liver p53” value (Sprague-Dawley rats [2]; [3]) was 30.0 µg/g lipid, the “CED, Liver p53 Ser15” value (Sprague-Dawley rats [2]; [4]) was 361 µg/g lipid and the “CED, Liver pChk2 Thr68” value (Sprague-Dawley rats [2]; [4]) was 337 µg/g lipid. For the same compound, the “CED-L, Liver p53 Ser15” value (Sprague-Dawley rats [2]; [4]) was 124 µg/g lipid, the “CED-L, Liver pChk2 Thr68” value (Sprague-Dawley rats [2]; [4]) was 98.2 µg/g lipid and the “CED, Liver p53” value (Sprague-Dawley rats [2]; [5]) was 2240 µg/g lipid. For the same compound, the “CED-L, Liver p53” value (Sprague-Dawley rats [2]; [5]) was 1053 µg/g lipid, the “CED, Liver p53 Ser15” value (Sprague-Dawley rats [2]; [6]) was 438 µg/g lipid and the “CED, Liver pChk2 Thr68” value (Sprague-Dawley rats [2]; [6]) was 382 µg/g lipid. For the same compound, the “CED-L, Liver p53 Ser15” value (Sprague-Dawley rats [2]; [6]) was 411 µg/g lipid, the “CED-L, Liver pChk2 Thr68” value (Sprague-Dawley rats [2]; [6]) was 165 µg/g lipid and the Emax (Sprague-Dawley rats [2]; F, model E4, controls vs high dose according to the fitted model, read-out: Maximum response, Liver p53) was 141%. The Emax (Sprague-Dawley rats [2]; females, controls vs high dose, fitted model, read-out: Liver p53, Maximum response) was 142%, the Emax (Sprague-Dawley rats [2]; females, controls vs high dose, fitted model, read-out: Liver p53 Ser15, Maximum response) was 181% and the Emax (Sprague-Dawley rats [2]; females, controls vs high dose, fitted model, read-out: Liver pChk2 Thr68, Maximum response) was 185%. The Emax (Sprague-Dawley rats [2]; F, model E5, controls vs high dose according to the fitted model, read-out: Maximum response, Liver p53 Ser15) was 181%, the Emax (Sprague-Dawley rats [2]; F, model E5, controls vs high dose according to the fitted model, read-out: Maximum response, Liver pChk2 Thr68) was 185% and the “Liver p53, CED” value (Sprague-Dawley rats [2]; [7]) was 14.1 mg/kg bw. The “Liver p53, CED-L” value (Sprague-Dawley rats [2]; [7]) was 5.89 mg/kg bw, the “Liver p53 Ser15, CED” value (Sprague-Dawley rats [2]; [7]) was 79.2 mg/kg bw and the “Liver p53 Ser15, CED-L” value (Sprague-Dawley rats [2]; [7]) was 19.5 mg/kg bw. For the same compound, the “Liver pChk2 Thr68, CED” value (Sprague-Dawley rats [2]; [7]) was 72.9 mg/kg bw, the “Liver pChk2 Thr68, CED-L” value (Sprague-Dawley rats [2]; [7]) was 31.5 mg/kg bw and the “Liver p53 Ser15, CED (100%)” value (Sprague-Dawley rats [2]; [8]) was 438 µg/g lipid. The “Liver pChk2 Thr68, CED (100%)” value (Sprague-Dawley rats [2]; [8]) was 382 µg/g lipid, the “Liver p53, CED” value (Sprague-Dawley rats [2]; [9]) was 472 mg/kg bw and the “Liver p53, CED-L” value (Sprague-Dawley rats [2]; [9]) was 210 mg/kg bw. For the same compound, the “Liver p53 Ser15, CED” value (Sprague-Dawley rats [2]; [9]) was 101 mg/kg bw, the “Liver p53 Ser15, CED-L” value (Sprague-Dawley rats [2]; [9]) was 93.0 mg/kg bw and the “Liver pChk2 Thr68, CED” value (Sprague-Dawley rats [2]; [9]) was 81.1 mg/kg bw. The “Liver pChk2 Thr68, CED-L” value (Sprague-Dawley rats [2]; [9]) was 41.8 mg/kg bw, the “Liver p53, CED” value (Sprague-Dawley rats [2]; [10]) was 2240 µg/g lipid and the “Liver p53, CED-L” value (Sprague-Dawley rats [2]; [10]) was 30000 ng/g lipid.
